Series [1] concerns the target T1, CthIspH–RPS1 (Acetivibrio thermocellus (Clostridium thermocellum), UniProt A3DDC0). The series is described as follows: CthIspH–RPS1 inhibition assay (methyl viologen method). For IC50 against CthIspH–RPS1: 40 nM enzyme, 50 µM HMBPP, 40 µM dithionite. Format: biochemical. As to the method: (§1) The CthIspH kinetics and inhibition assays were performed by using the methyl viologen method described previously.[27] […] The reactions were monitored at 606 nm. K m and k cat were fitted by using a Michaelis–Menten relation in Origin 9.1. The extinction coefficient for the methyl viologen radical cation at 606 nm was taken to be 13 700 M^–1 cm^–1.[28]

The test system of series [2] is AaIspH. More on the design: method as in PMID 24481599, PMID 20426416. Particulars: Fig. 5a bottom value; read-out: IC50 against AaIspH; cited from earlier work.
Series [3] concerns IspH from the thermophile Aquifex aeolicus. Also on record: method as in PMID 24481599. Particulars: A. aeolicus IspH; cited from earlier work.
Series [4] addresses T1, CthIspH–RPS1. The series is described as follows: CthIspH–RPS1 Michaelis–Menten kinetics (methyl viologen assay). Format: biochemical. As to conditions: substrate HMBPP, room temperature. The protocol: as §1
Substrate consumption and product formation were also confirmed by LC-MS (Fig. S3 ^†) and NMR analysis.

Substrate in series [5]: C/C(=C\COP(=O)(O)OP(=O)(O)O)CO
Kind of series: purified protein, by the assay type. As to conditions: other: substrate HMBPP, room temperature.

Setting [6] is: read-out: IC50 against CthIspH–RPS1.

Read-outs that look alike come from different tables or passages of the source.

Take `C#CCOP(=O)(O)OP(=O)(O)O` [Compound 4]: the IC50 in series [1] (setting [6]) came to 8.8 µM.

Regarding `C#CCCOP(=O)(O)OP(=O)(O)O` [Compound 5], the IC50 in series [2] was 0.45 µM; in series [1] (setting [6]), 3.3 µM.

In the case of `C#CCCCOP(=O)(O)OP(=O)(O)O` [Compound 6], the IC50 in series [1] (setting [6]) amounted to 47 µM.

As to `O=P(O)(O)OP(=O)(O)OCc1cccnc1` [Compound 7], the IC50 in series [1] (setting [6]) came out at 150 µM.

As to `O=P(O)(O)OP(=O)(O)OCCc1cccnc1` [Compound 8], the IC50 in series [1] (setting [6]) amounted to 240 µM.

For `O=P(O)(O)OP(=O)(O)OCCCc1cccnc1` [Compound 9], the IC50 in series [1] (setting [6]) turned out to be 490 µM.

On to `O=P(O)(O)OP(=O)(O)OCc1ccncc1` [Compound 10], for which, in series [1] (setting [6]), the IC50 is 120 µM.

With `O=P(O)(O)OP(=O)(O)OCC#CCO` [Compound 11], the IC50 in series [1] (setting [6]) came to 92 µM.

On to `CC#CCOP(=O)(O)OP(=O)(O)O` [Compound 12], for which the IC50 in series [1] (setting [6]) amounted to 760 µM.

In the case of `O=P(O)(O)OP(=O)(O)SCC#CCO` [Compound 13, 4-Hydroxybut-2-ynyl-S-thiolodiphosphate], 3.8 µM corresponded to half-maximal inhibition in series [1] (IC50). For the same molecule, the “activity against CthIspH–RPS1 (in words)” value in series [1] (inhibition of catalytic activity) was “very active”.

For the molecule `C/C(=C\COP(=O)(O)OP(=O)(O)O)CO` [HMBPP, (E)-1-hydroxy-2-methyl-but-2-enyl 4-diphosphate], in series [3], the Km is 7 µM and the kcat is 1.0 s^–1. In series [4], the kcat turned out to be 56 min^–1.

B1: CthIspH–RPS1 (Acetivibrio thermocellus ATCC 27405) (protein)
chain: MEIIVAKSAGFCFGVSNAVKTVNNLLENQKEPIYTYGPIIHNAQVVDLFTSKGVKKIDDIDEAEPNGHIVIRAHGVTPDIYKKISDKGLILEDATCPYVKKIHNLVKEKSEEGYKIIIVGDRNHPEVIGINGWCNNQAYIVDSVDDVEKFPTSDEKVCVVAQTTITNEKWLEVNTALKKKFKNILKFDTICSATSRRQNEAEEIAKNVDMMIIIGGKNSSNTQKLYDICKKHCNLTYKIETSGDLPPVDIKKIKKVGISAGASTPDWVIEEVIKKMSELNKQGMVDILENDGEIDFANAFENSFVRIHAGDTVKGKIIGFNSNEVFVDLGYKADGIIPLEEYTDDPNFNIEKEVKIGEEVEVLVEMVNDGEGNVRLSKRKVDAIKSWDDIVKAYENKTPVNAYVVEVVKGGVIASYKGVRIFVPASQVSDRYVKDLNEFLKRSITVRILELNEKRRKVVGSARVIIEEEKEALANRTWNSMEVGKVFKGTVKSLTDFGAFVDIGGVDGLIHISELSWTRVKHPSEVLKVGDEVEVTVLEFDKEKKKVSLGYRKMEDNPWYKIEEKYKVGDVVKVTVLRFAPFGAFVELEKGVDGLVHISQISSKRLAKVEDALEIGMKVDAKIIEVDGENKKISLSIKEVMPIDPPSSKSESKAKDGSEAKETSANTEEEAEPTEHREDMNVTVEDLVSKTTQS
In the case of B1, the Km in series [5] is 15 µM.

In general, IC50 refers to the concentration needed to halve the response being measured. In general, Km refers to the concentration of substrate that gives half-maximal velocity.

(Values after PMC4746011, “IspH–RPS1 and IspH–UbiA: “Rosetta stone” proteins” (Chemical Science, 2015).)
